Test systems include RPMI-8226 leukemia; M14 melanoma; HCT-116 colon; HT29 colon; UACC-62 melanoma; SF-295 CNS; SNB-19 CNS; SK-MEL-2 melanoma; T-47D breast; MDA-MB-231 breast; HS 578T breast; 786-0 renal; SF-539 CNS; UACC-257 melanoma; NCI-H23 lung.
What all share (assay): DTP human tumour cell line panel, 48 h

Molecules are shown by their SMILES.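 Protocol summary: plate cells (96-well), add compound at 5 concentrations, incubate 48 h, interpolate endpoints linearly. TGI: concentration producing complete growth inhibition.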 A value given as a limit tells only on which side of the number the result lay.

Drawing on PubChem BioAssay (NCI), this text covers TGI for nine compounds.

Broadly, the TGI is the concentration giving total growth inhibition. Low values mean greater sensitivity of the cells, high ones lower sensitivity of the cells. As for `COC(=O)C1(Cc2ccccc2C)Cc2ccc(C)cc2C1=O` (stereo not given), the TGI in the assay with RPMI-8226 leukemia is 32.2 µM; with M14 melanoma it was > 100 µM; in the assay with HCT-116 colon, > 100 µM; with HT29 colon, 57.5 µM; in the assay on UACC-62 melanoma, > 100 µM; in the assay with SF-295 CNS, > 100 µM. Besides, the TGI in the assay with SNB-19 CNS was > 100 µM; in the assay on SK-MEL-2 melanoma, 47.7 µM; in the assay on T-47D breast it was > 100 µM; in the assay with MDA-MB-231 breast, > 100 µM; in the assay on HS 578T breast it was > 100 µM; in the assay on 786-0 renal, > 100 µM. Also, the TGI in the assay with SF-539 CNS, in the assay on UACC-257 melanoma and in the assay on NCI-H23 lung was > 100 µM in each case.

In the case of `C/C(O)=C/c1nc2sc(C)c(C)c2c(=O)s1`, the TGI with RPMI-8226 leukemia, in the assay on M14 melanoma, with HCT-116 colon, in the assay on HT29 colon, with UACC-62 melanoma and in the assay with SF-295 CNS was > 100 µM in each case. Further, the TGI in the assay on SNB-19 CNS is > 100 µM; with SK-MEL-2 melanoma it was 65.1 µM; in the assay with T-47D breast, > 100 µM; with MDA-MB-231 breast, > 100 µM; in the assay with HS 578T breast, 74 µM; in the assay with 786-0 renal, > 100 µM. In addition, the TGI with SF-539 CNS, in the assay on UACC-257 melanoma and in the assay on NCI-H23 lung was > 100 µM in each case.

With `COC(=O)c1c(OC(C)=O)ccc2c1c1c(n2Cc2ccccc2)C(=O)c2ccccc2C1=O`, the TGI turned out to be 36.4 µM in the assay on RPMI-8226 leukemia; 47.5 µM with M14 melanoma; 34.2 µM in the assay with HCT-116 colon; 32.3 µM in the assay with HT29 colon; 48.8 µM in the assay with UACC-62 melanoma; 38.5 µM in the assay with SF-295 CNS. Moreover, the TGI with SNB-19 CNS was determined as 97.1 µM; with SK-MEL-2 melanoma, 36.2 µM; in the assay with T-47D breast, 56.3 µM; in the assay with MDA-MB-231 breast it was 36.8 µM; in the assay with HS 578T breast it was 48.3 µM; in the assay with 786-0 renal, 52.4 µM. Further, the TGI in the assay on SF-539 CNS came out at 33.7 µM; in the assay on UACC-257 melanoma, 26.8 µM; in the assay with NCI-H23 lung, 42.1 µM.

Take `O=C(O)c1ccccc1/C=C1\Cc2ccc3c(c2C1=O)CCCC3`: the TGI in the assay with RPMI-8226 leukemia is 60.8 µM; in the assay with M14 melanoma, 81.1 µM; in the assay with HCT-116 colon, 80.4 µM; in the assay with HT29 colon it was > 100 µM; in the assay with UACC-62 melanoma, 46.5 µM; in the assay with SF-295 CNS, 99.5 µM. Further, the concentration for total growth inhibition (TGI) in the assay with SNB-19 CNS was > 100 µM; with SK-MEL-2 melanoma it was 88.7 µM; with T-47D breast, 79.3 µM; in the assay with MDA-MB-231 breast it was 62.3 µM; in the assay on HS 578T breast, 81.2 µM; in the assay on 786-0 renal, > 100 µM. Moreover, the TGI in the assay with SF-539 CNS was 81.6 µM; in the assay on UACC-257 melanoma, 68.4 µM; in the assay with NCI-H23 lung, 75.4 µM.

As to `O=C1c2ccccc2-c2ccc(N(Cc3ccc(Br)cc3)Cc3ccc(Br)cc3)cc21`, the TGI in the assay with RPMI-8226 leukemia, with M14 melanoma, with HCT-116 colon, in the assay on HT29 colon, with UACC-62 melanoma and with SF-295 CNS was > 100 µM in each case. Besides, the TGI in the assay on SNB-19 CNS, in the assay with SK-MEL-2 melanoma, with T-47D breast, with MDA-MB-231 breast, with HS 578T breast and in the assay on 786-0 renal was > 100 µM throughout. Further, the TGI in the assay with SF-539 CNS, in the assay with UACC-257 melanoma and in the assay with NCI-H23 lung was > 100 µM in each case.

For `O=C(CN1c2ccccc2Sc2ccccc21)n1cnc2ccccc21`, the TGI with RPMI-8226 leukemia, in the assay with M14 melanoma, in the assay with HCT-116 colon, in the assay with HT29 colon, in the assay on UACC-62 melanoma and with SF-295 CNS was > 100 µM in each case. Moreover, the TGI with SNB-19 CNS, in the assay with SK-MEL-2 melanoma, with T-47D breast, in the assay with MDA-MB-231 breast, in the assay with HS 578T breast and in the assay with 786-0 renal was > 100 µM each time. The TGI with SF-539 CNS, in the assay on UACC-257 melanoma and in the assay with NCI-H23 lung was > 100 µM in each case.

With `CCOC(=O)/C(C#N)=N\Nc1ccc(-n2c(C)nc3ccc(Br)cc3c2=O)cc1`, the TGI with RPMI-8226 leukemia, with M14 melanoma, with HCT-116 colon, in the assay with HT29 colon, in the assay with UACC-62 melanoma and in the assay with SF-295 CNS was > 100 µM throughout. Besides, the TGI in the assay with SNB-19 CNS, in the assay on SK-MEL-2 melanoma, in the assay on T-47D breast, in the assay on MDA-MB-231 breast, in the assay with HS 578T breast and in the assay on 786-0 renal was > 100 µM throughout. For the same compound, the TGI in the assay on SF-539 CNS, in the assay with UACC-257 melanoma and with NCI-H23 lung was > 100 µM throughout.

For the compound `C[N+](C)(C)C(Cc1c[nH]c(=S)[nH]1)C(=O)O` (stereo not given), the concentration for total growth inhibition (TGI) in the assay with RPMI-8226 leukemia, in the assay on M14 melanoma, in the assay with HCT-116 colon, with HT29 colon, with UACC-62 melanoma and in the assay on SF-295 CNS was > 100 µM each time. The TGI in the assay with SNB-19 CNS, in the assay on SK-MEL-2 melanoma, in the assay with T-47D breast, in the assay with MDA-MB-231 breast, in the assay with HS 578T breast and with 786-0 renal was > 100 µM each time. Besides, the TGI in the assay on SF-539 CNS, in the assay with UACC-257 melanoma and in the assay on NCI-H23 lung was > 100 µM in each case.

With `O=C1NC(c2ccccc2)C1N(Cc1ccccc1)Cc1ccccc1` (stereo not given), the TGI with RPMI-8226 leukemia, in the assay with M14 melanoma, with HCT-116 colon, in the assay with HT29 colon, in the assay on UACC-62 melanoma and in the assay with SF-295 CNS was > 100 µM throughout. Moreover, the TGI in the assay on SNB-19 CNS, in the assay on SK-MEL-2 melanoma, in the assay on T-47D breast, with MDA-MB-231 breast, in the assay on HS 578T breast and in the assay with 786-0 renal was > 100 µM each time. Also, the TGI with SF-539 CNS, in the assay on UACC-257 melanoma and in the assay with NCI-H23 lung was > 100 µM in each case.
